In the NIST ThermoML archive (doi:10.1021/je1002048):
Numbers after ± are expanded uncertainties.

What was measured:
[1] = Liquid; for Normal boiling temperature: Ebulliometric method (Recirculating still)
[2] = excess molar enthalpy (molar enthalpy of mixing); xn = mol fraction of the nth substance listed; conditions: 303.15 K, 101 kPa, Liquid, Calvet calorimetry

Structure (SMILES) | mass density ([1]; 298.15 K, 101.33 kPa, Pycnometric method) [kg/m3] | Normal boiling temperature [1] [°C] | excess molar enthalpy ([2]; x2 = 0.032) [kJ/mol] | excess molar enthalpy ([2]; x2 = 0.082) [kJ/mol] | excess molar enthalpy ([2]; x2 = 0.127) [kJ/mol] | excess molar enthalpy ([2]; x2 = 0.192) [kJ/mol] | excess molar enthalpy ([2]; x2 = 0.251) [kJ/mol] | excess molar enthalpy ([2]; x2 = 0.351) [kJ/mol] | excess molar enthalpy ([2]; x2 = 0.447) [kJ/mol] | excess molar enthalpy ([2]; x2 = 0.502) [kJ/mol] | excess molar enthalpy ([2]; x2 = 0.572) [kJ/mol] | excess molar enthalpy ([2]; x2 = 0.653) [kJ/mol] | excess molar enthalpy ([2]; x2 = 0.734) [kJ/mol] | excess molar enthalpy ([2]; x2 = 0.874) [kJ/mol]
c1ccncc1 [pyridine] | 980.8 ± 1 | 116 ± 0.1 | – | – | – | – | – | – | – | – | – | – | – | –
CCO [ethanol] | – | 78.2 ± 0.1 | – | – | – | – | – | – | – | – | – | – | – | –
c1ccncc1 [pyridine] + CCO | – | – | -0.0015 ± 0.0008 | -0.0064 ± 0.0008 | -0.0129 ± 0.001 | -0.0228 ± 0.0013 | -0.0346 ± 0.0017 | -0.0512 ± 0.0023 | -0.0719 ± 0.0031 | -0.0775 ± 0.0033 | -0.0792 ± 0.0034 | -0.0637 ± 0.0028 | -0.0529 ± 0.0024 | -0.025 ± 0.0013
